# Laboratory results: US9908912B2, “Triclosan derivatives and uses thereof” (priority 2012, dated 2018)
# Tests used:
# Str. pneumoniae = experiment: MIC in Nutrient Agar; assay type: cell-based, Streptococcus pneumoniae; conditions: Nutrient Agar containing 0.1 μg/ml of inducer; 37° C., 24 hours
# Protocol: (§1) The triclosan-glycosides were added to Nutrient Agar (Oxoid CM0003; Thermofisher Scientific) and organisms were transferred onto the plates surface using a multi-point inoculation device (Oxoid Cathra, Thermofisher Scientific). The latter is essentially a metal plate containing a number of needles. Each needle tip (usually 36 per plate) dips into an organism suspension (in phosphate buffered saline; PBS) and the needles are then moved over the agar plate and lowered onto its surface. In this way the growth of colonies of up to 36 different organisms can be observed on one plate.
# (§2) Nutrient Agar No. 2 was prepared according to the manufacturers instructions, autoclaved and cooled to 50° C. Test compounds were then added as filter sterilised solutions (50:50 deionised water:ethanol), to give final concentrations from 256 μg/ml to 0 μg/ml in doubling dilutions. […] The mixtures were swirled then four plates (25 ml molten agar) were poured for each concentration. Plates were dried in a laminar flow cabinet then inoculated with overnight cultures of organisms that had been decimally diluted twice in sterile saline solution (approximately 10^7 cfu/ml) using a multi-point inoculator. Plates were then incubated at 37° C. for 24 hours. MICs were determined as the concentration at which no growth was observed.
# Str. viridans = experiment: MIC in Nutrient Agar; assay type: cell-based, Streptococcus viridans; conditions: Nutrient Agar containing 0.1 μg/ml of inducer; 37° C., 24 hours
# Protocol: as §1, §2
# S. saprophyticus = experiment: MIC in Nutrient Agar; assay type: cell-based, Staphylococcus saprophyticus; conditions: Nutrient Agar containing 0.1 μg/ml of inducer; 37° C., 24 hours
# Protocol: as §1, §2
# [1] = test system: Strep. pneumoniae ATCC 6305; experiment: MIC in Nutrient Broth No. 2; assay type: cell-based, Streptococcus pneumoniae; conditions: Nutrient Broth No. 2
# Protocol: (§3) Bacteria species as indicated in Table 1 were incubated for approximately 24 hours at 37° C.
# (§4) The tests were repeated with the addition of inducers. Methyl glycoside was the main inducer used, but other suitable inducers include isopropyl-β-D-thiogalactopyranoside, p-nitrophenyl-α-L-arabinopyranoside and p-nitrophenyl-β-D-xylopyranoside. Concentration of inducer in all cases was 100 μg/ml.
# Ent. cloacae = experiment: MIC in Nutrient Agar; assay type: cell-based, Enterobacter cloacae; conditions: Nutrient Agar containing 0.1 μg/ml of inducer; 37° C., 24 hours
# Protocol: as §1, §2
# Kleb. pneumoniae = experiment: MIC in Nutrient Agar; assay type: cell-based, Klebsiella pneumoniae; conditions: Nutrient Agar containing 0.1 μg/ml of inducer; 37° C., 24 hours
# Protocol: as §1, §2
# S. haemolyticus = experiment: MIC in Nutrient Agar; assay type: cell-based, Staphylococcus haemolyticus; conditions: Nutrient Agar containing 0.1 μg/ml of inducer; 37° C., 24 hours
# Protocol: as §1, §2
# C. freundii = experiment: MIC in Nutrient Agar; assay type: cell-based, Citrobacter freundii; conditions: Nutrient Agar containing 0.1 μg/ml of inducer; 37° C., 24 hours
# Protocol: as §1, §2
# [2] = test system: Ps. Aeruginosa ATCC 27853; experiment: MIC in Nutrient Broth No. 2; assay type: cell-based; conditions: Nutrient Broth No. 2
# Protocol: as §3, §4
# Proteus vulgaris OCC 195 = experiment: MIC in Nutrient Broth No. 2; assay type: cell-based; conditions: Nutrient Broth No. 2
# Protocol: as §3, §4
# [3] = test system: Enterobacter aerogenes ATCC 13048; experiment: MIC in Nutrient Broth No. 2; assay type: cell-based; conditions: Nutrient Broth No. 2
# Protocol: as §3, §4
# Escherichia coli = experiment: MIC in Nutrient Broth No. 2; assay type: cell-based; conditions: 8 strains, Nutrient Broth No. 2
# Protocol: as §3, §4
# [4] = test system: Citrobacter freundii OCC 851; experiment: MIC in Nutrient Broth No. 2; assay type: cell-based; conditions: Nutrient Broth No. 2
# Protocol: as §3, §4
# [5] = test system: Enterococcus faecium ATCC 19434; experiment: MIC in Nutrient Broth No. 2; assay type: cell-based; conditions: Nutrient Broth No. 2
# Protocol: as §3, §4
# Hafnia alvei ATCC 13337 = experiment: MIC in Nutrient Broth No. 2; assay type: cell-based; conditions: Nutrient Broth No. 2
# Protocol: as §3, §4
# Salmonella = experiment: MIC in Nutrient Broth No. 2; assay type: cell-based; conditions: 11 strains, Nutrient Broth No. 2
# Protocol: as §3, §4
# [6] = test system: Aeromonas hydrophila OCC 778; experiment: MIC in Nutrient Broth No. 2; assay type: cell-based; conditions: Nutrient Broth No. 2
# Protocol: as §3, §4
# [7] = test system: Enterococcus faecalis ATCC 29212; experiment: MIC in Nutrient Broth No. 2; assay type: cell-based; conditions: Nutrient Broth No. 2
# Protocol: as §3, §4
# [8] = test system: Bacillus subtilis NCTC 10073; experiment: MIC in Nutrient Broth No. 2; assay type: cell-based; conditions: Nutrient Broth No. 2
# Protocol: as §3, §4
# [9] = test system: Serratia marcescens OCC 217; experiment: MIC in Nutrient Broth No. 2; assay type: cell-based; conditions: Nutrient Broth No. 2
# Protocol: as §3, §4
# [10] = test system: Bacillus cereus ATCC 14579; experiment: MIC in Nutrient Broth No. 2; assay type: cell-based; conditions: Nutrient Broth No. 2
# Protocol: as §3, §4
# [11] = test system: Proteus mirabilis ATCC 12453; experiment: MIC in Nutrient Broth No. 2; assay type: cell-based; conditions: Nutrient Broth No. 2
# Protocol: as §3, §4
# E. hermanii = experiment: MIC in Nutrient Agar; assay type: cell-based, Escherichia hermanii; conditions: Nutrient Agar containing 0.1 μg/ml of inducer; 37° C., 24 hours
# Protocol: as §1, §2
# Str. agalactiae = experiment: MIC in Nutrient Agar; assay type: cell-based, Streptococcus agalactiae; conditions: Nutrient Agar containing 0.1 μg/ml of inducer; 37° C., 24 hours
# Protocol: as §1, §2
# E. hermanii ATCC 33650 = experiment: MIC in Nutrient Broth No. 2; assay type: cell-based, Escherichia hermanii; conditions: Nutrient Broth No. 2
# Protocol: as §3, §4
# S. epidermidis = experiment: MIC in Nutrient Agar; assay type: cell-based, Staphylococcus epidermidis; conditions: 3 strains; Nutrient Agar containing 0.1 μg/ml of inducer; 37° C., 24 hours
# Protocol: as §1, §2
# Cr. sakazakii = experiment: MIC in Nutrient Agar; assay type: cell-based, Cronobacter sakazakii; conditions: Nutrient Agar containing 0.1 μg/ml of inducer; 37° C., 24 hours
# Protocol: as §1, §2
# Str. pyogenes = experiment: MIC in Nutrient Agar; assay type: cell-based, Streptococcus pyogenes; conditions: Nutrient Agar containing 0.1 μg/ml of inducer; 37° C., 24 hours
# Protocol: as §1, §2
# Ser. marcescens = experiment: MIC in Nutrient Agar; assay type: cell-based, Serratia marcescens; conditions: Nutrient Agar containing 0.1 μg/ml of inducer; 37° C., 24 hours
# Protocol: as §1, §2
# [12] = test system: Kleb. pneumoniae ATCC 10031; experiment: MIC in Nutrient Broth No. 2; assay type: cell-based, Klebsiella pneumoniae; conditions: Nutrient Broth No. 2
# Protocol: as §3, §4
# Ps. aeruginosa = experiment: MIC in Nutrient Agar; assay type: cell-based; conditions: Nutrient Agar containing 0.1 μg/ml of inducer; 37° C., 24 hours
# Protocol: as §1, §2
# Bacillus cereus = experiment: MIC in Nutrient Agar; assay type: cell-based; conditions: Nutrient Agar containing 0.1 μg/ml of inducer; 37° C., 24 hours
# Protocol: as §1, §2
# Hafnia alvei = experiment: MIC in Nutrient Agar; assay type: cell-based; conditions: Nutrient Agar containing 0.1 μg/ml of inducer; 37° C., 24 hours
# Protocol: as §1, §2
# Bacillus subtilis = experiment: MIC in Nutrient Agar; assay type: cell-based; conditions: Nutrient Agar containing 0.1 μg/ml of inducer; 37° C., 24 hours
# Protocol: as §1, §2
smiles,measurement,setting,value
"O[C@@H]1[C@H](Oc2cc(Cl)ccc2Oc2ccc(Cl)cc2Cl)OC[C@@H](O)[C@H]1O [β-D-Arabinoside, triclosan-β-D-arabinopyranoside]",MIC,Str. pneumoniae,64 µg/mL
same,MIC,Str. viridans,128 µg/mL
same,MIC,S. saprophyticus,64 µg/mL
same,MIC,[1]; with inducer 100 μg/ml,64 µg/mL
same,MIC,[1]; without inducer,64 µg/mL
same,MIC,Ent. cloacae,16 µg/mL
same,MIC,Kleb. pneumoniae,8 µg/mL
same,MIC,S. haemolyticus,16 µg/mL
same,MIC,C. freundii,64 µg/mL
same,MIC,[2]; with inducer 100 μg/ml,>256 µg/mL
same,MIC,[2]; without inducer,>256 µg/mL
same,MIC,Proteus vulgaris OCC 195; with inducer 100 μg/ml,64 µg/mL
same,MIC,Proteus vulgaris OCC 195; without inducer,128 µg/mL
same,MIC,[3]; with inducer 100 μg/ml,64 µg/mL
same,MIC,[3]; without inducer,128 µg/mL
same,MIC,Escherichia coli; with inducer 100 μg/ml,4 to 32 µg/mL
same,MIC,Escherichia coli; without inducer,8 to 32 µg/mL
same,MIC,[4]; with inducer 100 μg/ml,64 µg/mL
same,MIC,[4]; without inducer,64 µg/mL
same,MIC,[5]; with inducer 100 μg/ml,256 µg/mL
same,MIC,[5]; without inducer,256 µg/mL
same,MIC,Hafnia alvei ATCC 13337; with inducer 100 μg/ml,4 µg/mL
same,MIC,Hafnia alvei ATCC 13337; without inducer,4 µg/mL
same,MIC,Salmonella; with inducer 100 μg/ml,32 to 64 µg/mL
same,MIC,Salmonella; without inducer,32 to 64 µg/mL
same,MIC,[6]; with inducer 100 μg/ml,>256 µg/mL
same,MIC,[6]; without inducer,>256 µg/mL
same,MIC,[7]; with inducer 100 μg/ml,256 µg/mL
same,MIC,[7]; without inducer,256 µg/mL
same,MIC,[8]; with inducer 100 μg/ml,128 µg/mL
same,MIC,[8]; without inducer,128 µg/mL
same,MIC,[9]; with inducer 100 μg/ml,>256 µg/mL
same,MIC,[9]; without inducer,>256 µg/mL
same,MIC,[10]; with inducer 100 μg/ml,128 µg/mL
same,MIC,[10]; without inducer,128 µg/mL
same,MIC,[11]; with inducer 100 μg/ml,16 µg/mL
same,MIC,[11]; without inducer,32 µg/mL
same,MIC,E. hermanii,32 µg/mL
same,MIC,Str. agalactiae,128 µg/mL
same,MIC,E. hermanii ATCC 33650; with inducer 100 μg/ml,16 µg/mL
same,MIC,E. hermanii ATCC 33650; without inducer,32 µg/mL
same,MIC,S. epidermidis,16 µg/mL
same,MIC,Cr. sakazakii,256 µg/mL
same,MIC,Str. pyogenes,64 µg/mL
same,MIC,Ser. marcescens,>256 µg/mL
same,MIC,[12]; with inducer 100 μg/ml,8 µg/mL
same,MIC,[12]; without inducer,4 µg/mL
same,MIC,Ps. aeruginosa,>256 µg/mL
same,MIC,Bacillus cereus,256 µg/mL
same,MIC,Hafnia alvei,8 µg/mL
same,MIC,Bacillus subtilis,256 µg/mL
"OC[C@H]1O[C@@H](Oc2cc(Cl)ccc2Oc2ccc(Cl)cc2Cl)[C@H](O)[C@@H](O)[C@@H]1O [β-D-Glucoside, triclosan-β-D-glucopyranoside]",MIC,Str. pneumoniae,128 µg/mL
same,MIC,Str. viridans,256 µg/mL
same,MIC,S. saprophyticus,32 µg/mL
same,MIC,[1]; with inducer 100 μg/ml,64 µg/mL
same,MIC,[1]; without inducer,128 µg/mL
same,MIC,Ent. cloacae,16 µg/mL
same,MIC,Kleb. pneumoniae,4 µg/mL
same,MIC,S. haemolyticus,16 µg/mL
same,MIC,C. freundii,64 µg/mL
same,MIC,[2]; with inducer 100 μg/ml,>256 µg/mL
same,MIC,[2]; without inducer,>256 µg/mL
same,MIC,Proteus vulgaris OCC 195; with inducer 100 μg/ml,8 µg/mL
same,MIC,Proteus vulgaris OCC 195; without inducer,64 µg/mL
same,MIC,[3]; with inducer 100 μg/ml,16 µg/mL
same,MIC,[3]; without inducer,64 µg/mL
same,MIC,Escherichia coli; with inducer 100 μg/ml,1 to 8 µg/mL
same,MIC,Escherichia coli; without inducer,8 to 64 µg/mL
same,MIC,[4]; with inducer 100 μg/ml,8 µg/mL
same,MIC,[4]; without inducer,64 µg/mL
same,MIC,[5]; with inducer 100 μg/ml,256 µg/mL
same,MIC,[5]; without inducer,>256 µg/mL
same,MIC,Hafnia alvei ATCC 13337; with inducer 100 μg/ml,0.5 µg/mL
same,MIC,Hafnia alvei ATCC 13337; without inducer,4 µg/mL
same,MIC,Salmonella; with inducer 100 μg/ml,2 to 8 µg/mL
same,MIC,[6]; with inducer 100 μg/ml,256 µg/mL
same,MIC,[6]; without inducer,>256 µg/mL
same,MIC,[7]; with inducer 100 μg/ml,128 µg/mL
same,MIC,[7]; without inducer,16 µg/mL
same,MIC,[8]; with inducer 100 μg/ml,32 µg/mL
same,MIC,[8]; without inducer,256 µg/mL
same,MIC,[9]; with inducer 100 μg/ml,>256 µg/mL
same,MIC,[9]; without inducer,>256 µg/mL
same,MIC,[10]; with inducer 100 μg/ml,128 µg/mL
same,MIC,[10]; without inducer,256 µg/mL
same,MIC,[11]; with inducer 100 μg/ml,2 µg/mL
same,MIC,[11]; without inducer,16 µg/mL
same,MIC,E. hermanii,16 µg/mL
same,MIC,Str. agalactiae,>256 µg/mL
same,MIC,E. hermanii ATCC 33650; with inducer 100 μg/ml,2 µg/mL
same,MIC,E. hermanii ATCC 33650; without inducer,16 µg/mL
same,MIC,S. epidermidis,8 to 16 µg/mL
same,MIC,Cr. sakazakii,32 µg/mL
same,MIC,Str. pyogenes,64 µg/mL
same,MIC,Ser. marcescens,>256 µg/mL
same,MIC,[12]; with inducer 100 μg/ml,0.5 µg/mL
same,MIC,[12]; without inducer,0.5 µg/mL
same,MIC,Ps. aeruginosa,>256 µg/mL
same,MIC,Bacillus cereus,256 µg/mL
same,MIC,Hafnia alvei,8 µg/mL
same,MIC,Bacillus subtilis,256 µg/mL
